Source: ChEMBL document CHEMBL1909046, “DrugMatrix in vitro pharmacology data”

Tests used:
[1] = DRUGMATRIX: Serotonin (5-Hydroxytryptamine) 5-HT3 radioligand binding (ligand: [3H] GR-65630); type: cell membranes, Membrane; conditions: hek293; Not Active = under 50% inhibition at 10 µM
D(1A) dopamine receptor = D(1A) dopamine receptor (Homo sapiens, UniProt P21728); assay: DRUGMATRIX: Dopamine D1 radioligand binding (ligand: [3H] SCH-23390); type: cell membranes, CHO, Membrane; conditions: Not Active = under 50% inhibition at 10 µM; for Ki: read-out: Ki
Sequence of D(1A) dopamine receptor (P21728 whole entry): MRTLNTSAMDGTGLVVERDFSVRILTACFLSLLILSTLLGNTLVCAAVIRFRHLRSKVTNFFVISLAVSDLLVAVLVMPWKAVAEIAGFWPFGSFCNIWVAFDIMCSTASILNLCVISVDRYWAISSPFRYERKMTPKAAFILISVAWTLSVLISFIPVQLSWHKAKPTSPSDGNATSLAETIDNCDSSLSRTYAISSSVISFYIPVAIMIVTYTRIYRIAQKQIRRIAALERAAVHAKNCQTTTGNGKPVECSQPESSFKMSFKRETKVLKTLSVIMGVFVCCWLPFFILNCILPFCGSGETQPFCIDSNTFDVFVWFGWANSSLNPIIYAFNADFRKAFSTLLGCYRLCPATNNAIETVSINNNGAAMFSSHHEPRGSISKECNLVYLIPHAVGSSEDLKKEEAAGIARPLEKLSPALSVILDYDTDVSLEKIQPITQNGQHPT

[2] = target: T1, Cysteinyl leukotriene receptor 1 (Homo sapiens, UniProt Q9Y271); type: cell membranes, CHO-K1, Membrane; further: in other assays of this panel Not Active means under 50% inhibition at 10 µM
T1 sequence (Q9Y271 whole entry): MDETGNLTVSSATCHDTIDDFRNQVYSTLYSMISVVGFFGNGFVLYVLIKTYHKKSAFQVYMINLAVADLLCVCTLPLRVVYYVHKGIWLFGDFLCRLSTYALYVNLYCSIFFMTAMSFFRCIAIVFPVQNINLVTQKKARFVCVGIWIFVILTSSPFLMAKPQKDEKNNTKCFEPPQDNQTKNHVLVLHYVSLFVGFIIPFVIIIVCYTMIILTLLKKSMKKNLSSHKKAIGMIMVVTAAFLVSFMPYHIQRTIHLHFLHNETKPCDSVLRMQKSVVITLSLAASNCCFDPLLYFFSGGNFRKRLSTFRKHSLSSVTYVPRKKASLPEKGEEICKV

[3] = target: T2, Polyunsaturated fatty acid lipoxygenase ALOX15 (Oryctolagus cuniculus, UniProt P12530); assay: biochemical; type: tissue-based, Reticulocytes;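 further: inhibition of 15-lipoxygenase enzyme activity measured with linoleic acid as the substrate; in other assays of this panel Not Active means under 50% inhibition at 10 µM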
T2 sequence (P12530 whole entry): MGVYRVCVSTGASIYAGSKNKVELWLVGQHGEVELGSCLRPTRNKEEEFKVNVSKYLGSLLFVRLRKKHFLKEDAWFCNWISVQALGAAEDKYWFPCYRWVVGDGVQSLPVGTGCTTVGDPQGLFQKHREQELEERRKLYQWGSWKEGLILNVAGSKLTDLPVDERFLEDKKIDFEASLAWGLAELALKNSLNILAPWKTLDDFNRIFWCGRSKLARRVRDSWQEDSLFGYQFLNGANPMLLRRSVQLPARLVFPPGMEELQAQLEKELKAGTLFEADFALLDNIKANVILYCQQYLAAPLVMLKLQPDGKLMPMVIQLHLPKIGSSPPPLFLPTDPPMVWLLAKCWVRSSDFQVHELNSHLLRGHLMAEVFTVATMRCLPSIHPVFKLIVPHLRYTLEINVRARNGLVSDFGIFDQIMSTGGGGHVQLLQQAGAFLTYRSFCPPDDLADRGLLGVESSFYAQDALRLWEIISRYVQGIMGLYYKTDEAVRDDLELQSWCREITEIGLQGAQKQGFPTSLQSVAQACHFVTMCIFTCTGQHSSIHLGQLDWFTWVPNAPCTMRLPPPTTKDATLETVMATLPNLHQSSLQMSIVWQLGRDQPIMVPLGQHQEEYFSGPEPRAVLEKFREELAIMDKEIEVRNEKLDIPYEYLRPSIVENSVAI

[4] = target: Mitogen-activated protein kinase 3 (Homo sapiens, UniProt P27361); assay: DRUGMATRIX: Protein Serine/Threonine Kinase, ERK1 enzyme inhibition (substrate: Myelin Basic Protein); design: species or system Escherichia coli; conditions: Not Active = under 50% inhibition at 10 µM
Sequence of Mitogen-activated protein kinase 3 (P27361 whole entry): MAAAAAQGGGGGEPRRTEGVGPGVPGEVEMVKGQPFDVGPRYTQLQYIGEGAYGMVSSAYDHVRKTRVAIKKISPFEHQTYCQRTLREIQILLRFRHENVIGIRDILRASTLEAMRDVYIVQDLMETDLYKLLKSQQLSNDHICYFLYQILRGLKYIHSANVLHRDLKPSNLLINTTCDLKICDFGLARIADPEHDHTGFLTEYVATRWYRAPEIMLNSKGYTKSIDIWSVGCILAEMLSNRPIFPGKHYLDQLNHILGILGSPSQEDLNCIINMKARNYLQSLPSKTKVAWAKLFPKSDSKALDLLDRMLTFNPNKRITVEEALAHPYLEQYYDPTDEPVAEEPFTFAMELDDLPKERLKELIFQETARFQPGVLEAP

Cytochrome P450 1A2 = target: T3, Cytochrome P450 1A2 (Homo sapiens, UniProt P05177); conditions: bti-tn-5b1-4; further: in other assays of this panel Not Active means under 50% inhibition at 10 µM
T3 sequence (P05177 whole entry): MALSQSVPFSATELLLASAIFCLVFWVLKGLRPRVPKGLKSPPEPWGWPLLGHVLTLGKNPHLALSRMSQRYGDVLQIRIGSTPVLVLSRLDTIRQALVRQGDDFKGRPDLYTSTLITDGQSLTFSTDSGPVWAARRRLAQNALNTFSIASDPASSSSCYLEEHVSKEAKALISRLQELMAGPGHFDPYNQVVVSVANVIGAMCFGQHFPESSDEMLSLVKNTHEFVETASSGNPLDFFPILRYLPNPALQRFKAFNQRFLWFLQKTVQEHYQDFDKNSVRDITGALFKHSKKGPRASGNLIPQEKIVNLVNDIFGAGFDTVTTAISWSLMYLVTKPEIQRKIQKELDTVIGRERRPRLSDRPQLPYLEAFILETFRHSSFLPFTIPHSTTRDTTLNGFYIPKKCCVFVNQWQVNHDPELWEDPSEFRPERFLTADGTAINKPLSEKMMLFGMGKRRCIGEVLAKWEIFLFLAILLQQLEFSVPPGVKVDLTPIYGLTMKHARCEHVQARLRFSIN

Row | SMILES | IC50 [1] | Ki [1] | IC50 (D(1A) dopamine receptor; cho) | IC50 ([2]; cho-k1) | IC50 ([3]; reticulocytes) | IC50 [4] | IC50 (Cytochrome P450 1A2) | Ki (Cytochrome P450 1A2) | IC50 ([3]; read-out: IC50) [µM] | IC50 (D(1A) dopamine receptor; read-out: IC50) [µM] | Ki (D(1A) dopamine receptor) [µM] | IC50 ([2]; read-out: IC50) [µM] | Ki ([2]; read-out: Ki) [µM]
1 | CC(C)(C)NC(=O)[C@@H]1C[C@@H]2CCCC[C@@H]2CN1C[C@@H](O)[C@H](Cc1ccccc1)NC(=O)[C@H](CC(N)=O)NC(=O)c1ccc2ccccc2n1 | Not Active | Not Active | Not Active | Not Active | Not Active | Not Active | Not Active | Not Active |  |  |  |  | 
2 | CC(=O)[C@@]1(O)CC[C@H]2[C@@H]3C[C@H](C)C4=CC(=O)CC[C@]4(C)[C@H]3CC[C@@]21C | Not Active | Not Active | Not Active | Not Active | Not Active | Not Active | Not Active | Not Active |  |  |  |  | 
3 | N[C@@H](Cc1ccc(N(CCCl)CCCl)cc1)C(=O)O | Not Active | Not Active | Not Active | Not Active | Not Active | Not Active | Not Active | Not Active |  |  |  |  | 
4 | CCCCc1oc2ccccc2c1C(=O)c1cc(I)c(OCCN(CC)CC)c(I)c1 [AMIODARONE] |  |  |  | Not Active | Not Active | Not Active |  |  |  |  |  |  | 
5 | OCCN(CCO)c1nc(N2CCCCC2)c2nc(N(CCO)CCO)nc(N3CCCCC3)c2n1 [DIPYRIDAMOLE] | Not Active | Not Active | Not Active | Not Active |  | Not Active |  |  | 6.96 |  |  |  | 
6 | Cc1oncc1C(=O)Nc1ccc(C(F)(F)F)cc1 [LEFLUNOMIDE] | Not Active | Not Active | Not Active | Not Active | Not Active | Not Active |  |  |  |  |  |  | 
7 | c1ccc([C@H]2CN3CCSC3=N2)cc1 [LEVAMISOLE] | Not Active | Not Active | Not Active | Not Active | Not Active | Not Active | Not Active | Not Active |  |  |  |  | 
8 | N[C@@H](Cc1cc(I)c(Oc2ccc(O)c(I)c2)c(I)c1)C(=O)O [LIOTHYRONINE] |  |  | Not Active | Not Active | Not Active | Not Active |  |  |  |  |  |  | 
9 | CCOC(=O)N1CCC(=C2c3ccc(Cl)cc3CCc3cccnc32)CC1 [LORATADINE] | Not Active | Not Active | Not Active | Not Active | Not Active | Not Active |  |  |  |  |  |  | 
10 | Cn1ccnc1S [METHIMAZOLE] | Not Active | Not Active | Not Active | Not Active | Not Active | Not Active |  |  |  |  |  |  | 
11 | CC[C@@H](CO)NC(=O)[C@@H]1C=C2c3cccc4[nH]cc(c34)C[C@H]2N(C)C1 [METHYLERGONOVINE] |  |  |  | Not Active | Not Active | Not Active | Not Active | Not Active |  | 1.08 | 0.539 |  | 
12 | CN1CCN(CCCN2c3ccccc3Sc3ccc(Cl)cc32)CC1 [PROCHLORPERAZINE] |  |  |  | Not Active | Not Active | Not Active |  |  |  |  |  |  | 
13 | Nc1nc2ccc(OC(F)(F)F)cc2s1 [RILUZOLE] | Not Active | Not Active | Not Active | Not Active | Not Active | Not Active |  |  |  |  |  |  | 
14 | Cc1nc2n(c(=O)c1CCN1CCC(c3noc4cc(F)ccc34)CC1)CCCC2 [RISPERIDONE] |  |  |  | Not Active | Not Active | Not Active | Not Active | Not Active |  |  |  |  | 
15 | CSc1ccc(/C=C2/C(C)=C(CC(=O)O)c3cc(F)ccc32)cc1 [SULINDAC SULFIDE] | Not Active | Not Active |  |  | Not Active | Not Active |  |  |  | 27.8 | 13.9 | 29.4 | 14.7
16 | CC/C(=C(\c1ccccc1)c1ccc(OCCN(C)C)cc1)c1ccccc1 [TAMOXIFEN] |  |  |  | Not Active | Not Active | Not Active | Not Active | Not Active |  |  |  |  | 
17 | CC(C)N1CCN(c2ccc(OCC3COC(Cn4cncn4)(c4ccc(Cl)cc4Cl)O3)cc2)CC1 (centres undefined) [TERCONAZOLE] | Not Active | Not Active |  | Not Active |  | Not Active | Not Active | Not Active | 2.45 |  |  |  | 
